What is called IC50 is the concentration that gives 50% inhibition.

Experiment [1] concerns the target T1, PDK1 kinase (Homo sapiens, UniProt O15530).
T1 sequence (O15530 1-556): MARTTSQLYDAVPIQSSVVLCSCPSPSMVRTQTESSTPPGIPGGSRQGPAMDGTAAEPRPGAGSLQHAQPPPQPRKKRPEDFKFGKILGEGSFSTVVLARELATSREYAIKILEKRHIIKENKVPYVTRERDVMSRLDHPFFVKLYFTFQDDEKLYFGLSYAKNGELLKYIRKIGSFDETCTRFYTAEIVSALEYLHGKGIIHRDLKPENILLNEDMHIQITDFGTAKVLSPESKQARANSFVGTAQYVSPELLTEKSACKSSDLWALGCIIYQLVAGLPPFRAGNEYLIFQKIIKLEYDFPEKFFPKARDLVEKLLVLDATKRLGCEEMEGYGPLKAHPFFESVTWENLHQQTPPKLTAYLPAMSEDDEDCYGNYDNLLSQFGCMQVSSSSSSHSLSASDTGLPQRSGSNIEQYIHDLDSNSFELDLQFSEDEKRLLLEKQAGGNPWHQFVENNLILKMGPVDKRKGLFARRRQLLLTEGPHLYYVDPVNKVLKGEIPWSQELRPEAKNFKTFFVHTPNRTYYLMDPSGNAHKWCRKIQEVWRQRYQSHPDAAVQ
The experiment can be described thus: PDK1 Kinase Alpha Screen Assay. To be noted: PDK1 Kinase Alpha Screen Assay; read-out: PDK1 IC50. Format: biochemical. An outline of the steps: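 Compound in DMSO added to PDK1-4 peptide; PDK1/ATP mix starts reaction (final 50 nM peptide, 10 uM ATP). Runs 3-18 hours, stopped with 90 mM EDTA buffer. Antibody/bead mix added, developed overnight at room temperature, then AlphaScreen signal read.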

Experiment [2] deals with PC-3 cells. Kind of experiment: Cell Proliferation Assay (Cell Titer Glo), PC-3 cell line. Format: cell-based. The conditions noted are these: Homo sapiens, PC-3, cell proliferation, PC3 cells; read-out: CPEC50 PC3. An outline of the steps: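 PC-3 cells, 1000 cells/well, left to adhere 3-5 h, then exposed for 3 days at 37° C to compounds as 1:3 serial dilutions from 500× DMSO stocks diluted in growth medium. Medium then replaced with fresh medium and viability read by Cell Titer Glo luminescence.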

The subject of experiment [3] is A2780 cells. Kind of experiment: Cell Proliferation Assay (Cell Titer Glo), A2780. Format: cell-based. The conditions noted are these: Homo sapiens; cell proliferation, A2780 cells; read-out: CPEC50 A2780. The procedure, abridged: (§1)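 Cells seeded at 1000/well, allowed to adhere 3-5 h, then exposed to DMSO-dissolved compounds for 3 days at 37° C., 5% CO2. Medium replaced before Cell Titer Glo addition; luminescence read after 10 min.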
A general note: In ATP-based viability assays light output follows the ATP content of the culture.

For experiment [4], the system named is PC3MM cells. Kind of experiment: Cell Proliferation Assay (Cell Titer Glo), PC3MM. The format is cell-based. To be noted: cell proliferation, PC3MM cells; read-out: CPEC50 PC3MM. An outline of the steps:
as §1

Take `NS(=O)(=O)c1ccc(Nc2ncc3cccc(OC4CCNCC4)c3n2)cc1` [Compound 718, 4-(8-(piperidin-4-yloxy)quinazolin-2-ylamino)benzenesulfonamide]: the 50% inhibitory concentration (IC50) in experiment [1] was less than 5 µM. The EC50 in experiment [2], in experiment [3] and in experiment [4] was less than 5 µM each time.
Consider `CC(C)N1CCC(Oc2cccc3cnc(Nc4ccc(S(N)(=O)=O)cc4)nc23)CC1` [Compound 725, 4-(8-(1-isopropylpiperidin-4-yloxy)quinazolin-2-ylamino)benzenesulfonamide], for which the IC50 in experiment [1] is less than 5 µM. The EC50 in experiment [2], in experiment [3] and in experiment [4] was less than 5 µM throughout.
On to `NS(=O)(=O)c1ccc(Nc2ncc3cccc(O[C@@H]4CN5CCC4CC5)c3n2)cc1` [Compound 744, (S)-4-(8-(quinuclidin-3-yloxy)quinazolin-2-ylamino)benzenesulfonamide], for which the IC50 in experiment [1] is less than 5 µM. Moreover, the EC50 in experiment [2], in experiment [3] and in experiment [4] was less than 5 µM throughout.
Regarding `CN1C2CCC1CC(Oc1cccc3cnc(Nc4ccc(S(N)(=O)=O)cc4)nc13)C2` (centres unmarked) [Compound 749, 4-(8-(8-methyl-8-azabicyclo[3.2.1]octan-3-yloxy)quinazolin-2-ylamino)benzenesulfonamide], the IC50 in experiment [1] is less than 5 µM. The EC50 in experiment [2], in experiment [3] and in experiment [4] was less than 5 µM throughout.
For `NS(=O)(=O)c1ccc(Nc2ncc3ccc(OC4CCNCC4)cc3n2)cc1` [Compound 750, 4-(7-(piperidin-4-yloxy)quinazolin-2-ylamino)benzenesulfonamide], in experiment [1], the IC50 was less than 5 µM. Also, the EC50 in experiment [2], in experiment [3] and in experiment [4] was less than 5 µM each time.
`CN1CCC(Oc2ccc3cnc(Nc4ccc(S(N)(=O)=O)cc4)nc3c2)CC1` [Compound 763, 4-(7-(1-methylpiperidin-4-yloxy)quinazolin-2-ylamino)benzenesulfonamide]: the IC50 in experiment [1] is less than 5 µM. Further, the EC50 in experiment [2], in experiment [3] and in experiment [4] was less than 5 µM throughout.
Turning to `O=S(=O)(c1ccc(Nc2ncc3cccc(OC4CCNCC4)c3n2)cc1)N1CCOCC1` [Compound 771, N-(4-(morpholinosulfonyl)phenyl)-8-(piperidin-4-yloxy)quinazolin-2-amine], the IC50 in experiment [1] was less than 5 µM. The EC50 in experiment [2], in experiment [3] and in experiment [4] was less than 5 µM throughout.
`CC(C)N1CCC(Oc2cccc3cnc(Nc4ccc(S(=O)(=O)N5CCOCC5)cc4)nc23)CC1` [Compound 772, 8-(1-isopropylpiperidin-4-yloxy)-N-(4-(morpholinosulfonyl)-phenyl)quinazolin-2-amine]: in experiment [1], the half-inhibitory concentration (IC50) was less than 5 µM. Moreover, the EC50 in experiment [2], in experiment [3] and in experiment [4] was less than 5 µM each time.
In the case of `NS(=O)(=O)c1ccc(Nc2ncc3cccc(-c4cc[nH]c(=O)c4)c3n2)cc1` [Compound 833, 4-(8-(2-oxo-1,2-dihydropyridin-4-yl)quinazolin-2-ylamino)benzenesulfonamide], in experiment [1], the IC50 was less than 5 µM. Moreover, the figures for the EC50 in experiment [3] and in experiment [4] were 5 to 10 µM and less than 5 µM, respectively.
Consider `NS(=O)(=O)c1ccc(Nc2ncc3cccc(-c4ccc(N5CCS(=O)(=O)CC5)nc4)c3n2)cc1` [Compound 834], for which the IC50 in experiment [1] is less than 5 µM. Moreover, the EC50 in experiment [3] and in experiment [4] was less than 5 µM each time.
`CC(C)CN1CC(Oc2cccc3cnc(Nc4ccc(S(N)(=O)=O)cc4)nc23)C1` [Compound 835, 4-(8-(1-isobutylazetidin-3-yloxy)quinazolin-2-ylamino)benzenesulfonamide]: the IC50 in experiment [1] is less than 5 µM. Besides, the EC50 in experiment [3] and in experiment [4] was less than 5 µM throughout.
In the case of `NS(=O)(=O)c1ccc(Nc2ncc3ccc(-c4ccc(F)nc4F)cc3n2)cc1` [Compound 836, 4-(7-(2,6-difluoropyridin-3-yl)quinazolin-2-ylamino)benzenesulfonamide], the IC50 in experiment [1] was less than 5 µM. Also, the EC50 in experiment [3] and in experiment [4] was less than 5 µM each time.
On to `NS(=O)(=O)c1ccc(Nc2ncc3ccc(-c4ccc(F)nc4)cc3n2)cc1` [Compound 837, 4-(7-(6-fluoropyridin-3-yl)quinazolin-2-ylamino)benzenesulfonamide], for which the IC50 in experiment [1] was less than 5 µM. Further, the EC50 in experiment [3] and in experiment [4] was less than 5 µM throughout.
Take `Cc1ccc(Cl)cc1NC(=O)c1ccc2cnc(Nc3ccc(S(N)(=O)=O)cc3)nc2c1` [Compound 838, N-(5-chloro-2-metlhylphenyl)-2-(4-sulfamoylphenylamino)quinazoline-7-carboxamide]: the IC50 in experiment [1] was less than 5 µM. The EC50 in experiment [3] and in experiment [4] was less than 5 µM in each case.
With `Cc1csc(NC(=O)c2ccc3cnc(Nc4ccc(S(N)(=O)=O)cc4)nc3c2)c1C(N)=O` [Compound 839, N-(3-carbamoyl-4-methylthiophen-2-yl)-2-(4-sulfamoylphenylamino)quinazoline-7-carboxamide], the IC50 in experiment [1] was less than 5 µM. The EC50 in experiment [3] and in experiment [4] was less than 5 µM throughout.
With `NS(=O)(=O)c1ccc(Nc2ncc3ccc(-c4ccc5c(c4)CCNC5=O)cc3n2)cc1` [Compound 840, 4-(7-(1-oxo-1,2,3,4-tetrahydroisoquinolin-6-yl)quinazolin-2-ylamino)benzenesulfonamide], the IC50 in experiment [1] was less than 5 µM. Moreover, the EC50 in experiment [3] is 5 to 10 µM; in experiment [4] it was less than 5 µM.
On to `CCN1CC(Oc2cccc3cnc(Nc4ccc(S(N)(=O)=O)cc4)nc23)C1` [Compound 841, 4-(8-(1-ethylazetidin-3-yloxy)quinazolin-2-ylamino)benzenesulfonamide], for which, in experiment [1], the IC50 is less than 5 µM. Also, the EC50 in experiment [3] and in experiment [4] was less than 5 µM in each case.
In the case of `Cc1ccc(C(N)=O)c(NC(=O)c2ccc3cnc(Nc4ccc(S(N)(=O)=O)cc4)nc3c2)c1` [Compound 842, N-(2-carbamoyl-5-methylphenyl)-2-(4-sulfamoylphenylamino)quinazoline-7-carboxamide], the half-inhibitory concentration (IC50) in experiment [1] is less than 5 µM. In addition, the values for the EC50 in experiment [3] and in experiment [4] were 5 to 10 µM and less than 5 µM, respectively.
Turning to `NS(=O)(=O)c1ccc(Nc2ncc3ccc(-c4cnc(=O)[nH]c4)cc3n2)cc1` [Compound 844, 4-(7-(2-oxo-1,2-dihydropyrimidin-5-yl)quinazolin-2-ylamino)benzenesulfonamide], in experiment [1], the 50% inhibitory concentration (IC50) was less than 5 µM. The values for the EC50 in experiment [3] and in experiment [4] were 5 to 10 µM and less than 5 µM, respectively.
Take `NS(=O)(=O)c1ccc(Nc2ncc3ccc(Br)c(OC4CCNCC4)c3n2)cc1` [Compound 845, 4-(7-bromo-8-(piperidin-4-yloxy)quinazolin-2-ylamino)benzenesulfonamide]: the concentration for half-maximal inhibition (IC50) in experiment [1] was less than 5 µM. Also, the EC50 in experiment [3] and in experiment [4] was less than 5 µM each time.
As for `Cc1nn(C)c(C)c1-c1ccc2cnc(Nc3ccc(S(N)(=O)=O)cc3)nc2c1` [Compound 848, 4-(7-(1,3,5-trimethyl-1H-pyrazol-4-yl)quinazolin-2-ylamino)benzenesulfonamide], in experiment [1], the IC50 was less than 5 µM. The EC50 in experiment [3] and in experiment [4] was less than 5 µM in each case.

(Values after patent US7932262B2 (Novartis AG, priority 2006, dated 2011).)
